Measured values as given in patent publication US6685617B1, “Inhibitors of α4β1 mediated cell adhesion” (Pharmacia & Upjohn Company, priority 1998, dated 2004).

Key:
[1] = target: T1, α4β1 integrin (Jurkat cell adhesion to immobilized CS-1 derived peptide CLHPGEILDVPST) (Homo sapiens, UniProt P05556+P13612); assay: Jurkat-CS-1 assay; type: cell-based; conditions: Jurkat cells on CS-1 peptide coated plates; read-out: JK/CS-1 (Jurkat CS-1 Assay IC50 value range)
T1 construct: 100 μl of Jurkat cells (2.5×10^6 cells/ml) in DMEM plus BSA; host or cells: Jurkat T-cell line
Protocol: The CS-1 derived peptide, CLHPGEILDVPST, and the scrambled control peptide, CLHGPIELVSDPT, were synthesized on a Beckman 990 synthesizer using t-Boc methodology. The peptides were immobilized onto microtiter plates using the heterobifunctional crosslinker 3-(2-pyridyldithio)propionic acid N-hydroxysuccinimide ester (SPDP) as reported by Pierschbacher et al., Proc. Natl. Acad. USA, 80:1224-1227 (1983). Microtiter plates were coated with 20 μg/ml HSA for 2 hr. at room temperature, washed once with PBS and derivatized with 10 μg/ml SPDP for 1 hr. After washing, 100 μl of a 100 μg/ml cysteine containing peptide solution which had been recently dissolved was added to the wells and allowed to crosslink to the plates overnight at 4° C. Unbound peptide was removed from plates by washing with PBS. To block non-reacted sites, the plates are coated with 100 μl of a 2.5 mg/ml BSA solution in PBS for 1 hr. at 37° C. 100 μl of Jurkat cells (2.5×10^6 cells/ml) in DMEM plus BSA (2.5 mg/ml) was mixed with an appropriate concentration of the compound to be tested and the mixture was added to peptide coated dishes and incubated for 1 hr. at 37° C. Generally 100, 20, 5 and 1.25 μM concentrations of the compound were tested.
Following this incubation the plates were washed once with PBS and the attached cells were fixed with 3% paraformaldehyde in PBS and stained with 0.5% toluidine blue in 3.7% formaldehyde. The cells were stained overnight at room temperature and the optical density at 590 nm of toluidine blue stained cells was determined using a vertical pathway spectrophotometer to quantitate attachment (VMAX Kinetic Microplate Reader, Molecular Devices, Menlo Park, Calif.). This procedure is a modification of a previously published method (Cardarelli et al, J. Biol. Chem., 269:18668-18673 (1994) and Cardarelli et al, Proc. Natl. Acad. Sci. USA, 83:2647-2651 (1986)).

[2] = target: T2, α4β1 integrin (Jurkat T-cell adhesion to IL-1 stimulated endothelial cell monolayers) (Homo sapiens, UniProt P05556+P13612); assay: Jurkat-endothelial cell adhesion assay (Jurkat EC); type: cell-based; conditions: Jurkat cells on IL-1 stimulated human umbilical vein endothelial cells; read-out: JK/EC (Jurkat EC Assay IC50 value range)
T2 construct: a T-cell line, Jurkat, known to express the α4β1 integrin; host or cells: Jurkat T-cell line
Protocol: Jurkat-endothelial Cell Adhesion Assay:
The following assay established the activity of the present compounds in inhibiting β1-mediated cell adhesion in a representative in vitro system. This assay measures the adhesive interactions of a T-cell line, Jurkat, known to express the α4β1 integrin, to endothelial monolayers in the presence of test compounds. The test compounds were added in increasing concentrations to T-cells and then the T-cell compound mixture was added to IL-1 stimulated endothelial cell monolayers. The plates were incubated, washed and the percentage of attached cells was quantitated.
Human umbilical vein endothelial cells were purchased from Clonetics (San Diego, Calif.) at passage number 2. The cells were grown on 0.5% porcine skin gelatin pre-coated flasks (Sigma, St. Louis Mo.) in EGM-UV media (Clonetics, San Diego, Calif.) supplemented with 10% fetal bovine serum. Cells are refed every 2-3 days reaching confluence by day 4 to 6. […] The endothelial cells are not used following passage 6.
The T-cell line Jurkat was obtained from American Type Tissue Culture Collection (Rockville, Md.) and the cells were cultured in RPMI containing 10% fetal calf serum. The cells were washed twice in Hank's Balanced Salt Solution (HBSS) and resuspended in Dulbecco's Minimal Eagle's Media (DMEM) containing 2.5 mg/ml Human Serum Albumin (HSA). Jurkat cells (1×10^6 cells/ml) were stained with 10 ng/ml BCECF-AM (Molecular Probes, Eugene, Oreg.)) in HBSS without phenol red. The cells were loaded with BCECF for 60 minutes in the dark at 370C, washed 2 times, and resuspended in DMEM-HSA solution.
Confluent endothelial monolayers, grown in 96-well tissue culture plates, were stimulated for 4 hr. at 37° C. with 0.1 ng/ml (˜50 U/ml) recombinant IL-1 (Amgen, Thousand Oaks, Calif.). Following this incubation, the monolayers were washed twice with HBSS and 0.1 ml of DMEM−HSA solution was added. Jurkat cells (5×10^5 cells) were combined with the appropriate concentration of the test compound and 0.1 ml of the Jurkat cell-compound mixture was added to the endothelial cell monolayers. Generally, 100, 20, 5 and 1.25 μM compound concentrations were tested. […] The plates were placed on ice for 5 minutes to allow for Jurkat cell settling and the plates were incubated at 37° C. for 20 minutes. Following this incubation, the monolayers were washed twice with PBS containing 1 mM calcium chloride and 1 mM magnesium chloride and the plates were read using a Millipore Cytofluor 2300 (Marlboro, Mass.). Fluorescence in each well was measured as Arbitrary Fluorescence Units and percent adhesion in the absence of compound was adjusted to 100% and the % adhesion in the presence of compound was calculated. Monolayers were also fixed in 3% paraformaldehyde and evaluated microscopically to verify the adhesion. This procedure is a modification of a previously published method (Cardarelli et al., J. Biol. Chem. 269:18668-18673 (1994)).

T1 sequence (P13612 34-1032): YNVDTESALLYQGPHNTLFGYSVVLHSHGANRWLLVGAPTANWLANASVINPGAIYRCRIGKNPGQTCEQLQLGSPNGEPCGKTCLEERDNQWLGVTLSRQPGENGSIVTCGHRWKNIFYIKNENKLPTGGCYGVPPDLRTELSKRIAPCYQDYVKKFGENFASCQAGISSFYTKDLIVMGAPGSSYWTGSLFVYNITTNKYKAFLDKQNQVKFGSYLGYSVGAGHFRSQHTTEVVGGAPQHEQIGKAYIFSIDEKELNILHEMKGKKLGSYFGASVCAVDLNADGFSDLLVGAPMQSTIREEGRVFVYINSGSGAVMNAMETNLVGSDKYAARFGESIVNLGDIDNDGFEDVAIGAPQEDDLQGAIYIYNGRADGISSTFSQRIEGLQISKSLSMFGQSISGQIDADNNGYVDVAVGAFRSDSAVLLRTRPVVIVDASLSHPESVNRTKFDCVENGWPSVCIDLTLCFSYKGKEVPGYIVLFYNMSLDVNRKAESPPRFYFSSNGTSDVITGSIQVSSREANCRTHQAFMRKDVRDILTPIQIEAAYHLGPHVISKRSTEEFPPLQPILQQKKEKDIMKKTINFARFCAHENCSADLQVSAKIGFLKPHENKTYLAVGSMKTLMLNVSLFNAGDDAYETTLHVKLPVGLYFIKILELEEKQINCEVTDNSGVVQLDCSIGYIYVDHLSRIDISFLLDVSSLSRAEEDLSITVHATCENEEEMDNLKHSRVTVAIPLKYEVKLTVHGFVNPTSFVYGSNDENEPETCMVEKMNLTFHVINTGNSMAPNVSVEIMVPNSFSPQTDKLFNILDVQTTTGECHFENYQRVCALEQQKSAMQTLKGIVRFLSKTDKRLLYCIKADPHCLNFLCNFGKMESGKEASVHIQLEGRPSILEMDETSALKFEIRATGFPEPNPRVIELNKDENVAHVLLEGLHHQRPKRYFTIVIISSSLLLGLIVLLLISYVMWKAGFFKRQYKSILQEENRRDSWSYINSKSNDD
T1 sequence (P05556 21-798): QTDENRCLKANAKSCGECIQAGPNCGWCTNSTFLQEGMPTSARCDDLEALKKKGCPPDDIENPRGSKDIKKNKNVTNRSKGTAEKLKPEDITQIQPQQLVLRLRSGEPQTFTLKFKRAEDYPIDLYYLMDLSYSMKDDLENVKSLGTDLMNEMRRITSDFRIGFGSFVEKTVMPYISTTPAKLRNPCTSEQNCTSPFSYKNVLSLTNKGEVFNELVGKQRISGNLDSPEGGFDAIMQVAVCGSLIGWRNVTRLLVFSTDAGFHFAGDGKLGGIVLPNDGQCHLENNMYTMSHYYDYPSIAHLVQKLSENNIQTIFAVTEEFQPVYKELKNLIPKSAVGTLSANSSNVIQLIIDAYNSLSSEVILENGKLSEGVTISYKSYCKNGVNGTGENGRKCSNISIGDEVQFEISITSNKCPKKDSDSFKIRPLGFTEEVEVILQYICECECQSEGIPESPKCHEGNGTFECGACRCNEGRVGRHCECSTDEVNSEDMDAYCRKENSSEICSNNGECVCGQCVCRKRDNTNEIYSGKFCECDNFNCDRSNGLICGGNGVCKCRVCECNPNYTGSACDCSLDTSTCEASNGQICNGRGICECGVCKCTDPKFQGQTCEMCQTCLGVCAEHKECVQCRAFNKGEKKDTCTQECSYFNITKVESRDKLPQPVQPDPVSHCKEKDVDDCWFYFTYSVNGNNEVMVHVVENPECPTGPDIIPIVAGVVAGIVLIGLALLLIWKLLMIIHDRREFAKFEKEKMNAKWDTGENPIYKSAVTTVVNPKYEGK
T2 sequence (P13612 34-1032): as the sequence (P13612 34-1032) above
T2 sequence (P05556 21-798): as the sequence (P05556 21-798) above

Structure (SMILES)	IC50 [1] [nM]	IC50 [2] [nM]
CC(=O)N1CSC[C@@H]1C(=O)N[C@@H](Cc1ccc(NC(=O)c2c(Cl)cccc2Cl)cc1)C(=O)O [Example 62, N-[[(4S)-3-Acetyl-4-thiazolidinyl]carbonyl]-4-[(2,6-dichlorobenzoyl)amino]-L-phenylalanine]	≤ 50	≤ 250
O=C(O)c1cncc(C(=O)N2CSC[C@@H]2C(=O)N[C@@H](Cc2ccc(NC(=O)c3c(Cl)cccc3Cl)cc2)C(=O)O)c1 [Example 263]	50 to 750	250 to 1000
CCOC(=O)N1[C@@H](C(=O)N[C@@H](Cc2ccc(NC(=O)c3c(Cl)cccc3Cl)cc2)C(=O)O)CSC12CCCCC2 (relative stereo) [Example 80, [S-(R*,R*)]-3-[[[1-Carboxy-2-[4-[(2,6-dichlorobenzoyl)amino]phenyl]ethyl]amino]carbonyl]-1-thia-4-azaspiro[4.5]decane-4-carboxylic Acid 4-Ethyl Ester]	≥ 750	≥ 1000
O=C(Nc1ccc(C[C@H](NC(=O)[C@H]2CSCN2C(=O)OCc2ccccn2)C(=O)O)cc1)c1c(Cl)cccc1Cl (relative stereo) [Example 149, [S-(R*,R*)]-4-[[[-Carboxy-2-[4-[(2,6-dichlorobenzoyl)amino]phenyl]ethyl]amino]carbonyl]-3-thiazolidinecarboxylic Acid 3-(2-pyridinylmethyl)ester]	≤ 50	≤ 250
O=C(Nc1ccc(C[C@H](NC(=O)[C@@H]2CSCN2C(=O)c2cc(O)c3ccccc3n2)C(=O)O)cc1)c1c(Cl)cccc1Cl [Example 242]	50 to 750	≥ 1000
CC(C)(CC(=O)O)CC(=O)N1CCCC(C(=O)N[C@@H](Cc2ccc(NC(=O)c3c(Cl)cccc3Cl)cc2)C(=O)O)C1 (stereo partly shown) [Example 196]	50 to 750	≥ 1000
CC(C)(C)OC(=O)N1[C@H](C(=O)N[C@@H](Cc2ccc(NC(=O)c3c(Cl)cccc3Cl)cc2)C(=O)O)CSC1(C)C (relative stereo) [Example 73, [R-(R*,S*)]-4-[[[Carboxy-2-[4-[(2,6-dichlorobenzoyl)amino]phenyl]ethyl]amino]carbonyl]-2,2-dimethyl-3-thiazolidinecarboxylic Acid 3-(1,1-Dimethylethyl)ester]	50 to 750	≥ 1000
COC(=O)[C@H](Cc1ccc(NC(=O)c2c(Cl)cccc2Cl)cc1)NC(=O)[C@@H]1N(C(C)=O)C(C)(C)SC1(C)C [Example 87, N-[[(4S)-3-Acetyl-2,2,5,5-tetramethyl-4-thiazolidinyl]carbonyl]-4-[(2,6-dichlorobenzoyl)amino]-L-phenylalanine Methyl Ester]	≥ 750	≥ 1000
O=C(Nc1ccc(C[C@H](NC(=O)[C@H]2CCCCN2C(=O)C2CCCO2)C(=O)O)cc1)c1c(Cl)cccc1Cl (stereo partly shown) [Example 253]	50 to 750	≤ 250
O=C(NO)[C@H](Cc1ccc(OCc2c(Cl)cccc2Cl)cc1)NC(=O)[C@H]1CSCN1C(=O)OCCN1CCCCC1 [Example 93]	≥ 750	≥ 1000
O=C(O)CCC1(CCC(=O)N[C@@H](Cc2ccc(OCc3c(Cl)cccc3Cl)cc2)C(=O)O)CCC(=O)N1 (stereo partly drawn) [Example 113, 2-[3-[[(1S)-1-Carboxy-2-[4-[(2,6-dichlorophenyl)methoxy]phenyl]ethyl]amino]-3-oxo-propyl]-5-oxo-2-pyrrolidinepropanoic Acid]	50 to 750	≥ 1000
CC1(C)SC[C@H](C(=O)N[C@@H](Cc2ccc(NC(=O)c3c(Cl)cccc3Cl)cc2)C(=O)O)N1C(=O)CCC(=O)O (relative stereo) [Example 85, [S-(R*,R*)]-4-[[[1-Carboxy-2-[4-[(2,6-dichlorobenzoyl)amino]phenyl]ethyl]amino]carbonyl]-2,2-dimethyl-γ-oxo-3-thiazolidinebutanoic Acid]	≤ 50	≤ 250
COC(=O)[C@H](Cc1ccc(NC(=O)c2c(Cl)cccc2Cl)cc1)NC(=O)[C@@H]1COCN1C(=O)OCc1ccccc1 [Example 124, [S-(R*,R*)]-4-[[[1-[[4-[(2,6-Dichlorobenzoyl)amino]phenyl]methyl]-2-methoxy-2-oxoethyl]amino]carbonyl]-3-oxazolidinecarboxylic Acid 3-Phenylmethyl Ester]	≥ 750	≥ 1000
CCN(CC)C(=O)N1CSC[C@@H]1C(=O)N[C@@H](Cc1ccc(NC(=O)c2c(Cl)cccc2Cl)cc1)C(=O)OC [Example 7, 4-[(2,6-Dichlorobenzoyl)amino]-N-[[(4S)-3-[(diethylamino)carbonyl]-4-thiazolidinyl]carbonyl]-L-phenylalanine Methyl Ester]	50 to 750	≥ 1000
CC(=O)CCC(=O)N1CCC(C(=O)N[C@@H](Cc2ccc(NC(=O)c3c(Cl)cccc3Cl)cc2)C(=O)O)CC1 [Example 216]	50 to 750	≥ 1000
O=C(Nc1ccc(C[C@H](NC(=O)[C@H]2CSCN2S(=O)(=O)c2ccccc2)C(=O)O)cc1)c1c(Cl)cccc1Cl [Example 47]	≤ 50	≤ 250
O=C(Nc1ccc(C[C@H](NC(=O)[C@H]2CSCN2C(=O)OCCN2CCOCC2)C(=O)O)cc1)c1c(Cl)cccc1Cl (relative stereo) [Example 25, [S-(R*,R*)]-4-[[[1-Carboxy-2-[-4-[(2,6-dichlorobenzoyl)amino]phenyl]ethyl]amino]carbonyl]-3-thiazolidinecarboxylic Acid 3-[2-(4-Morpholinyl)ethyl]ester]	≤ 50	≤ 250
CN1C(=O)CC(C(=O)N[C@@H](Cc2ccc(NC(=O)c3c(Cl)cccc3Cl)cc2)C(=O)O)C1c1ccc2c(c1)OCO2 (stereo partly drawn) [Example 171, N-[[2-(1,3-Benzodioxol-5-yl)-1-methyl-5-oxo-3-pyrrolidinyl]carbonyl]-4-[(2,6-dichlorobenzoyl)amino]-L-phenylalanine]	50 to 750	≥ 1000
O=C(O)c1ccc(NC(=O)N2CCC[C@H]2C(=O)N[C@@H](Cc2ccc(NC(=O)c3c(Cl)cccc3Cl)cc2)C(=O)O)cc1 [Example 238]	50 to 750	≥ 1000
O=C(O)CCC(=O)N1CSC[C@@H]1C(=O)N[C@@H](Cc1ccc(OCc2c(Cl)cccc2Cl)cc1)C(=O)O (relative stereo) [Example 64, [S-(R*,R*)]-4-[[[1-Carboxy-2-[4-[(2,6-dichlorophenyl)methoxy]phenyl]ethyl]amino]carbonyl]-γ-oxo-3-thiazolidinebutanoic Acid]	≤ 50	≤ 250
